The assay addresses benzodiazepine receptors. Description: Affinity for benzodiazepine receptors: inhibition of specific binding of [3H]flunitrazepam (WASTEK et al., modified). The arrangement: species or system rats. The following applies: 50% inhibition of specific binding of [3H]flunitrazepam, rat brain membranes. As to the method: This study was performed according to the technique of WASTEK et al., (Europ. J. Pharmacol., 1978, 50, 445-447) slightly modified.
Rats are sacrificed by decapitation, and the brain is removed, ground, suspended, centrifuged and resuspended.
Samples of this suspension are incubated in the presence of [^3 H]flunitrazepam, alone or in the presence of increasing concentrations of the test compound.
The radioactivity bound on the membranes is then determined by liquid scintillation.
The concentration of product which 50% inhibits the specific binding of [^3 H]flunitrazepam (IC50) is thereby determined.

Molecules are shown by their SMILES. Counter-ions that a name gives are not always drawn.

In general, IC50 refers to the point on the concentration scale where inhibition reaches its midpoint. A lower IC50 goes with greater potency in that assay.

`CCOC(=O)c1cnc2ccc(C)cc2c1NCC(=O)N(CC)CC` [Derivative 2, 2-[(3-Ethoxycarbonyl-6-methyl)-4-quinolyl]amino-N,N-diethylacetamide hydrochloride] came in with an IC50 of 41 nM.

Regarding `CCCCc1ccc2ncc(C(=O)OCC)c(NCC(=O)N(CC)CC)c2c1` [Derivative 6, 2-(3-Ethoxycarbonyl-6-butyl-4-quinolyl)amino-N,N-diethylacetamide], the IC50 came to 155 nM. Next, `CCOC(=O)c1cnc2ccc(F)cc2c1NCC(=O)N(CC)CC` [Derivative 7, 2-(3-Ethoxycarbonyl-6-fluoro-4-quinolyl)amino-N,N-diethylacetamide]: 639 nM; `CCOC(=O)c1cnc2ccc(C3CCCCC3)cc2c1NCC(=O)N(CC)CC` [Derivative 9, 2-(3-Ethoxycarbonyl-6-cyclohexyl-4-quinolyl)amino-N,N-diethylacetamide]: 900 nM. Next, `CCCN(CCC)C(=O)CNc1c(C(=O)OCC)cnc2ccccc12` [Derivative 15, 2-(3-Ethoxycarbonyl-4-quinolyl)amino-N,N-dipropylacetamide]: 483 nM; `CCCN(CCC)C(=O)CNc1c(C(=O)OCC)cnc2ccc(OCC)cc12` [Derivative 16, 2-(3-Ethoxycarbonyl-6-ethoxy-4-quinolyl)amino-N,N-dipropylacetamide]: 38 nM. Consider `CCCN(CCC)C(=O)CNc1c(C(=O)OCC)cnc2ccc([N+](=O)[O-])cc12` [Derivative 18, 2-(3-Ethoxycarbonyl-6-nitro-4-quinolyl)amino-N,N-dipropylacetamide], for which the IC50 was determined as 26 nM. Then `CCCN(CCC)C(=O)CNc1c(C(=O)OCC)cnc2ccc(C(F)(F)F)cc12` [Derivative 19, 2-(3-Ethoxycarbonyl-6-trifluoromethyl-4-quinolyl)amino-N,N-dipropylacetamide], with 28 nM. Regarding `CCCN(CCC)C(=O)CNc1c(C(=O)OCC)cnc2ccc(SC)cc12` [Derivative 20, 2-(3-Ethoxycarbonyl-6-methylthio-4-quinolyl)amino-N,N-dipropylacetamide], the IC50 was found to be 40 nM. `CCOC(=O)c1cnc2ccc(Cl)cc2c1NCC(=O)N(CC(C)C)CC(C)C` [Derivative 21, 2-(3-Ethoxycarbonyl-6-chloro-4-quinolyl)amino-N,N-diisobutylacetamide] returned an IC50 of 28 nM. Then `CCOC(=O)c1cnc2ccc(Cl)cc2c1NCC(=O)N(C)c1ccccc1` [Derivative 22, 2-(3-Ethoxycarbonyl-6-chloro-4-quinolyl)amino-N-methyl-N-phenylacetamide], with 14 nM; and `CCOC(=O)c1cnc2ccc(Cl)cc2c1NCC(=O)N(C)C1CCCCC1` [Derivative 23, 2-(3-Ethoxycarbonyl-6-chloro-4-quinolyl)amino-N-methyl-N-cyclohexylacetamide], with 100 nM; and `CCOC(=O)c1cnc2ccc(Cl)cc2c1NCC(=O)N(C)c1ccc(Cl)cc1` [Derivative 24, 2-(3-Ethoxycarbonyl-6-chloro-4-quinolyl)amino-N-methyl-N-(4-chlorophenyl)acetamide], with 251 nM. In turn, `CCOC(=O)c1cnc2ccc(Cl)cc2c1NCC(=O)N1CCCCCC1` [Derivative 27, 1-{2-[(3-Ethoxycarbonyl-6-chloro-4-quinolyl)amino]acetyl}homopiperidine] yielded an IC50 of 38 nM. This IC50 lies about 6.6-fold lower than the previous one. In turn, `CCOC(=O)c1cnc2ccc(Cl)cc2c1NCC(=O)N1CCOCC1` [Derivative 28, 1-{2-[(3-Ethoxycarbonyl-6-chloro-4-quinolyl)amino]acetyl}morpholine] gave an IC50 of 600 nM. This IC50 is about 16-fold higher than that of the compound before. Next, `CCOC(=O)c1cnc2ccc(Cl)cc2c1NCC(N)=O` [Derivative 30, 2-[(3-Ethoxycarbonyl-6-chloro-4-quinolyl)amino]acetamide]: 700 nM; `CCOC(=O)c1cnc2ccc(Cl)cc2c1NCC(=O)N(C(C)C)C(C)C` [Derivative 34, 2-(3-Ethoxycarbonyl-6-chloro-4-quinolyl)amino-N,N-diisopropylacetamide]: 48 nM.

The values are drawn from patent US4788188A, “Quinolylglycinamide derivatives, the process for preparation thereof and their therapeutic application as psychotropic drugs” (Sanofi (S.A.), priority 1985, dated 1988).
